{
  "source": "patent US12194158B2",
  "about": "“Oromucosal nanofiber carriers for therapeutic treatment” (Instar Technologies A.S., priority 2016, dated 2025)",
  "key": {"[1]": {"conditions": "acidic stomach pH; cited from earlier work"}, "[2]": {"experiment": "In vitro transmucosal permeation of liraglutide through porcine sublingual mucosa (Franz diffusion cell)", "assay_type": "in vitro ADME", "conditions": "from nanofibre carrier", "protocol": "The liraglutide containing nanofibre carrier samples or the reference solution samples were applied onto fresh porcine sublingual mucosa of thickness ca 0.4 mm fixed in a Franz diffusion cell. An exposed mucosal area for permeation was 1.0 cm^2, and the stirred acceptor phase was phosphate buffer pH 7.4 tempered at 37°±0.5° C. Both the tested solutions (Victoza pre-filled pen for subcutaneous injection, 6 mg/mL and the liraglutide solution in buffer pH 6.80, 0.4 mg/mL) were applied onto the sublingual membrane in 400 μL volume. Donor nanofibre samples contained 0.5 mg of liraglutide in the form of a multilayered nanofibre disc and were suffused in donor space with 400 μL of buffer pH 6.80 or 8.15, respectively.\nDetermination of liraglutide was performed on an Agilent 1200 instrument. The parameters were as follows: Column Poroshell 120 EC-C18 (4.6×150 mm, particle size: 5.0 μm) was thermostated at 35° C. Samples were kept at 10° C., injection 5.00 μL. Mobile Phase A: Na2HPO4 (pH 7.75):ACN (85:15) was mixed with Mobile Phase B: ACN in gradient and pumped at speed 1.200 mL/min. Detector wavelength: 215 nm. Resulting liraglutide retention time was ca 3.4 min."}, "[3]": {"conditions": "after oral administration; cited from earlier work"}},
  "note": "Where a name gives a salt, the structure may show the parent alone.",
  "data": [
    {"smiles": "CCCCCCOC(=O)NC(=N)c1ccc(NCc2nc3cc(C(=O)N(CCC(=O)OCC)c4ccccn4)ccc3n2C)cc1", "note": "[DG, Dabigatran ethexylate mesylate]", "values": [
      {"measurement": "solubility", "setting": "[1]", "value": "very good"}
    ]},
    {"smiles": "CCCCCCCCCCCCCCCC(=O)N[C@@H](CCC(=O)NCCCC[C@H](NC(=O)[C@H](C)NC(=O)[C@H](C)NC(=O)[C@H](CCC(N)=O)NC(=O)CNC(=O)[C@H](CCC(=O)O)NC(=O)[C@H](CC(C)C)NC(=O)[C@H](Cc1ccc(O)cc1)NC(=O)[C@H](CO)NC(=O)[C@H](CO)NC(=O)[C@@H](NC(=O)[C@H](CC(=O)O)NC(=O)[C@H](CO)NC(=O)[C@@H](NC(=O)[C@H](Cc1ccccc1)NC(=O)[C@@H](NC(=O)CNC(=O)[C@H](CCC(=O)O)NC(=O)[C@H](C)NC(=O)[C@@H](N)Cc1cnc[nH]1)[C@@H](C)O)[C@@H](C)O)C(C)C)C(=O)N[C@@H](CCC(=O)O)C(=O)N[C@@H](Cc1ccccc1)C(=O)N[C@H](C(=O)N[C@@H](C)C(=O)N[C@@H](Cc1c[nH]c2ccccc12)C(=O)N[C@@H](CC(C)C)C(=O)N[C@H](C(=O)N[C@@H](CCCNC(=N)N)C(=O)NCC(=O)N[C@@H](CCCNC(=N)N)C(=O)NCC(=O)O)C(C)C)[C@@H](C)CC)C(=O)O", "note": "[Liraglutide]", "values": [
      {"measurement": "duration of further sublingual permeation in vitro", "setting": "[2]", "value": "about 1 hour"},
      {"measurement": "transmucosal permeation through the sublingual membrane", "setting": "[2]; FIG. 5", "value": "able to permeate transmucosally"}
    ]},
    {"smiles": "CNS(=O)(=O)Cc1ccc2[nH]cc(CCN(C)C)c2c1", "note": "[sumatriptan]", "values": [
      {"measurement": "oral bioavailability", "setting": "[3]", "value": 15, "unit": "%"}
    ]}
  ]
}
